# Where a name gives a salt, the structure may show the parent alone.
# Tests used:
# C2C12 cells [1] = assay: Myotube atrophy induced by C26 cancer cell conditioned medium (cachexia model); format: cell-based, mouse; conditions: 1 μM; differentiation media with 33% CM, 3 days
# Method: In order to confirm a cachexia treatment effect of alverine citrate and 4-hydroxy alverine, an experiment mimicking a tumor-growth environment by treatment of a cancer cell conditioned medium (CM) was conducted as an ex vivo approach. First, cancer cell CM was prepared using a C26 cancer cell line. Here, as cancel cell growth media (GM), RPMI1640 media supplemented with 10% fetal bovine serum was used. The C26 cancer cell line was cultured using a 100 mm cell culture plate and the cancer cell GM. Here, the media were removed when cell confluency reached 90%. Then, after washing with phosphate buffer (1× buffer), the prepared differentiation media were treated following the same process as in Example 1. After 24 hours, a C26 cancer cell line CM was obtained and filtered using bottle top filters (Thermo, PES, 1 L) before use.
# C2C12 cells were dispensed in a 6-well plate treated with the GM of Example 1.1 at a concentration of 5×10^5 cells per plate and after 24 hours, were replaced with DMEM media supplemented with 5% HS and induced for differentiation. […] Here, by treating the experimental groups with 1 μM alverine citrate (AC) and 4-hydroxy alverine (4HA), the effect of suppressing myotube atrophy was evaluated. […] Following the same method as in Example 1.2, by florescent staining using antibodies against MyHC, the expression amount of MyHC was measured.
# C2C12 cells [2] = assay: Promotion of differentiation of myoblasts (MyHC fluorescent staining); format: cell-based, mouse
# Method: C2C12 (American Type Culture Collection, CRL-1772™) cells are a myoblast cell line obtained from C3H mouse and is used in myoblast differentiation research. The C2C12 cells were cultured using growth media, and then cultured using differentiation media for differentiation induction. Here, DMEM supplemented with 10% fetal bovine serum was used as growth media (GM), and DMEM supplemented with 5% horse serum (HS) was used as differentiation media (DM). In order to confirm the effect of alverine citrate on promoting the differentiation of myoblasts, C2C12 cells were dispensed in the GM of Example 1.1 and cultured for 24 hours, and then the C2C12 cells were treated with DMSO, insulin, or alverine citrate, and induced for differentiation over 3 days. […] Here, the DMSO, insulin and alverine citrate used in the experiment were all purchased from Sigma-Aldrich. The group treated with insulin was used as the positive control group. In particular, C2C12 cells were dispensed in a 6-well plate treated with the GM of Example 1.1 at a concentration of 5×10^5 cells per plate and after 24 hours, were replaced with DMEM media supplemented with 5% HS and induced for differentiation. Thereafter, the cells were treated with DMSO, insulin (1.72 μM) or alverine citrate (0.01 μM, 0.1 μM, 1 μM or 10 μM). After 3 days, after removing the media, the cells were washed with phosphate buffer solution (1× PBS) and treated with paraformaldehyde (4%) and fixed at room temperature for 15 minutes. Then, after washing three times with phosphate buffer solution (1× PBS), PBS containing 0.3% triton X-100 was treated with permeabilization buffer and allowed to react at room temperature for 10 minutes. After washing three times with phosphate buffer solution (1× PBS), PBST (blocking buffer, PBS containing 0.5% Tween 20) containing 2% bovine serum albumin was administered and allowed to react for 30 minutes to suppress nonspecific binding of antibodies. After washing with phosphate buffer (1× PBS) three times, 100 μL of primary antibodies (SC-20641, Santa Cruz Biotechnology) to MYH3 diluted to 1:500 were added and allowed to react at room temperature for 1 hour. Thereafter, after washing with phosphate buffer (1× PBS) three times, 100 μL of secondary antibodies (Goat anti-Rabbit IgG-HRP) diluted to 1:5,000 were added and allowed to react at room temperature for 1 hour. After 1 hour, for nuclear staining, after washing with phosphate buffer (1× PBS) three times, the blocking buffer was treated with diluted DAPI dye and allowed to react at room temperature for 10 minutes. Thereafter, after washing with phosphate buffer (1× PBS) three times, the washed cover glass was measured for absorbance at a wavelength of 450 nm and a fluorescent image was taken using a fluorescence microscope. The anti-MyHC antibody stained area was analyzed using imageJ (Java-based image processing program). To confirm the effect of 4-hydroxy alverine on promoting myoblast differentiation, following the same method as Example 1, DMSO, insulin (1.72 μM), alverine citrate (0.01 μM, 0.1 μM, 1 μM or 10 μM), 4-hydroxy alverine (0.01 μM, 0.1 μM, 1 μM or 10 μM) were each administered, and differentiation to myotubes and changes in myotube thickness and diameter were observed.
# sarcopenia-induced mice = assay: Running ability test, sarcopenia-induced mouse; format: in vivo; conditions: hindlimb-immobilized mice; oral 17, 50, 150 mg/kg/day
# Method: Running ability was measured using a treadmill designed specific for this experiment. First, aversive stimuli were provided by letting electric stimuli flow at the starting point. Before the measurement, the mice were acclimatized at 8 m/min for 10 minutes. The running time was recorded by allowing mice in each group to run in separate lanes until exhaustion. Exhaustion was defined such that when the mouse stays outside the lanes for 10 seconds or more without running, the mouse was determined to be exhausted and the time was recorded. It was not possible to repeat this experiment on the same mouse. The mouse was placed on the treadmill and the test was started at 8 rpm, and the speed was accelerated by 2 rpm every 10 minutes to a maximum speed of 20 rpm. The slope of the lane started from a zero-degree incline and then was elevated to a five-degree incline after 30 min from the start. In order to confirm a muscle strength enhancement effect of alverine citrate, sarcopenia-induced mice were administered with alverine citrate and tested for running ability. After the treadmill running test, muscle weight was measured. In particular, the hindlimb of 10 week-old C57BL/6 male mice was immobilized using a surgical stapler (Autosuture Royal 35W stapler). […] After that, running ability was measured. […] Running ability was measured by the same method as in Example 2.2.
structure (smiles),measurement,setting,value
CCN(CCCc1ccccc1)CCCc1ccccc1 [alverine citrate],myotube atrophy,C2C12 cells [1],myotube atrophy was suppressed
same,diameter of myotubes,"C2C12 cells [2]; as the treatment concentration increases (0.01, 0.1, 1, 10 μM), 3 days",the diameter of myotubes increased
same,differentiation of myoblasts to myotubes,"C2C12 cells [2]; compared with DMSO alone, 3 days, insulin 1.72 μM, alverine citrate 0.01-10 μM",more differentiated to myotubes
same,differentiation of myoblasts to myotubes,"C2C12 cells [2]; compared with DMSO or insulin (1.72 μM), 0.01-10 μM",more differentiated to myotubes
same,"running time, dependence on dose",sarcopenia-induced mice,increased proportionally with the dose concentration
